These results are taken from PubChem BioAssay (NCI).

The term GI50 denotes the concentration at which growth is held to half of that of the control. The term TGI denotes the concentration at which net growth stops. Lower therefore signals greater sensitivity of the cells.

Each structure is given as a SMILES string.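 Compound exposure: 48 hours, 5 concentrations, 96-well plates. Abbreviation: GI50, concentration required for 50% inhibition of growth. The concentration for full growth arrest is given as TGI.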

Assay in all cases: DTP human tumour cell line panel, 48 h
For assay [1], the system named is 786-0 renal.
Assay [2] relates to BT-549 breast.
The subject of assay [3] is CAKI-1 renal.
Assay [4] relates to HOP-62 NSCLC.
The subject of assay [5] is KM12 colon.
Assay [6] relates to M14 melanoma.
Assay [7] concerns PC-3 prostate.
For assay [8], the system named is SW-620 colon.
For assay [9], the system named is T-47D breast.
Assay [10] deals with MCF7 breast.

For `C=C(CNCCc1ccc(O)cc1)[C@@H]1CC[C@]2(CO)CC[C@]3(C)[C@H](CC[C@@H]4[C@@]5(C)CCC(N)C(C)(C)[C@@H]5CC[C@]43C)[C@@H]12` (some centres undefined), the GI50 in [1] was 1.52 µM; in assay [2], 1.7 µM; in assay [3] it was 1.59 µM; in [4], 1.73 µM; in assay [5] it was 1.48 µM; in assay [6], 1.75 µM. The GI50 in assay [7] was 1.44 µM; in assay [8], 0.915 µM; in assay [9], 1.64 µM. Moreover, the TGI in assay [1] is 3 µM; in assay [2], 3.53 µM; in assay [3] it was 3.1 µM; in [4] it was 3.36 µM; in [5] it was 2.96 µM; in assay [6], 3.33 µM. Besides, the TGI was 2.98 µM in assay [7], 2.27 µM in assay [8] and 3.58 µM in [9].
For `O=C(/C=C/c1cn(-c2ccccc2)nc1-c1ccc([N+](=O)[O-])cc1)c1ccc(Cl)cc1`, the GI50 in [1] was 3.94 µM; in assay [2] it was 3.13 µM; in [3], greater than 21.3 µM; in assay [4] it was 14.9 µM; in [9] it was 1.22 µM. In addition, the TGI in assay [1] was 55.3 µM; in assay [2], greater than 32.1 µM; in assay [3], greater than 100 µM; in [4], 51.1 µM; in assay [9], greater than 100 µM.
On to `CCN(CC)CCOc1ccc(/C=C2\CC3C4CC=C5C[C@@H](OC(C)=O)CC[C@]5(C)C4CC[C@]3(C)C2=O)cc1OC` (some centres undefined), for which the GI50 is 2.03 µM in [1]; 11.4 µM in assay [2]; 0.429 µM in assay [3]; 4.34 µM in assay [4]; 1.99 µM in [5]; 2.09 µM in [6]. Also, the GI50 in [7] is 4.16 µM; in assay [9], 38.2 µM. The TGI in assay [1] was found to be 4.29 µM; in assay [2], 33 µM; in assay [3] it was 2.52 µM; in assay [4] it was 16.8 µM; in assay [5], 4.18 µM; in [6], 4.36 µM. For the same molecule, the TGI was 26.9 µM in [7] and greater than 100 µM in [9].
Turning to `NC(N)=N/N=C/c1c(-c2ccc(Cl)c([N+](=O)[O-])c2)nc2n1CCS2`, the GI50 in assay [1] was 4.18 µM; in [2], 21.5 µM; in assay [3], 13.5 µM; in [4] it was 2.83 µM; in assay [5] it was 12.4 µM; in assay [6], 15.4 µM. Besides, the GI50 is 2.93 µM in [7] and 21.6 µM in [9]. Besides, the TGI is 15.3 µM in [1]; 50.2 µM in assay [2]; 28 µM in [3]; 9.44 µM in assay [4]; 25.7 µM in [5]; 29.1 µM in [6]. Further, the TGI amounted to 15.1 µM in assay [7] and 50.2 µM in [9].
For the molecule `C/C(=N\n1c(N)c(C#N)c(-c2ccc(Cl)cc2)c(C#N)c1=O)c1ccncc1`, the GI50 in [1] is 6.95 µM; in [3], 16.7 µM; in [4], 16.9 µM; in assay [6], greater than 100 µM; in assay [10] it was 5.7 µM; in assay [7], 2.41 µM. Also, the GI50 in assay [8] is 31.5 µM; in [9], 7.81 µM. Moreover, the TGI in assay [1] was 34 µM; in assay [3] it was greater than 100 µM; in assay [4], 48.8 µM; in assay [6], greater than 100 µM; in assay [10], 93.9 µM; in assay [7], 16.8 µM. Moreover, the TGI in assay [8] is greater than 100 µM; in [9], 85.3 µM.
Turning to `COc1ccc(-c2cc(/C=C/C(=O)c3cc(OC)c(OC)c(OC)c3)[nH]n2)cc1OC`, the GI50 in assay [1] is 1.5 µM; in assay [2], 1.36 µM; in [4] it was 1.45 µM; in assay [5], 0.78 µM; in assay [6], 1.8 µM; in assay [7], 1.99 µM. Further, the GI50 was 1.5 µM in assay [8] and 1.01 µM in assay [9]. Moreover, the total growth inhibition concentration (TGI) in assay [1] is 2.9 µM; in [2] it was 2.93 µM; in assay [4] it was 3.59 µM; in assay [5] it was 2.27 µM; in assay [6], 3.69 µM; in assay [7] it was 10.3 µM. Also, the TGI in assay [8] is 4.16 µM; in assay [9], 3.76 µM.
Turning to `c1cnc2[nH]cc(-c3csc(-c4cn(CCCN5CCCCC5)c5ccccc45)n3)c2c1`, the GI50 in [1] is 1.63 µM; in [2], 1.68 µM; in [4] it was 1.47 µM; in assay [5] it was 1.61 µM; in assay [6] it was 1.76 µM; in assay [7], 1.59 µM. Moreover, the TGI in assay [1] was 3.06 µM; in [2] it was 3.24 µM; in [4], 3.02 µM; in assay [5], 3.13 µM; in [6], 3.45 µM; in assay [7], 3.05 µM.
